Measured values as given in publication PMC9005681, “Use of AD Informer Set compounds to explore validity of novel targets in Alzheimer's disease pathology” (Alzheimer's & Dementia : Translational Research & Clinical …, 2022).

How the values were obtained:
[1] = biological target: T1, cloned human or rodent CNS receptors, channels, and transporters (PDSP panel) (Homo sapiens, UniProt P08912); test: PDSP GPCR panel primary binding assays at 10 μM; conditions: primary assay
T1 construct: expressed in transfected cells
T1 sequence (P08912 1-532): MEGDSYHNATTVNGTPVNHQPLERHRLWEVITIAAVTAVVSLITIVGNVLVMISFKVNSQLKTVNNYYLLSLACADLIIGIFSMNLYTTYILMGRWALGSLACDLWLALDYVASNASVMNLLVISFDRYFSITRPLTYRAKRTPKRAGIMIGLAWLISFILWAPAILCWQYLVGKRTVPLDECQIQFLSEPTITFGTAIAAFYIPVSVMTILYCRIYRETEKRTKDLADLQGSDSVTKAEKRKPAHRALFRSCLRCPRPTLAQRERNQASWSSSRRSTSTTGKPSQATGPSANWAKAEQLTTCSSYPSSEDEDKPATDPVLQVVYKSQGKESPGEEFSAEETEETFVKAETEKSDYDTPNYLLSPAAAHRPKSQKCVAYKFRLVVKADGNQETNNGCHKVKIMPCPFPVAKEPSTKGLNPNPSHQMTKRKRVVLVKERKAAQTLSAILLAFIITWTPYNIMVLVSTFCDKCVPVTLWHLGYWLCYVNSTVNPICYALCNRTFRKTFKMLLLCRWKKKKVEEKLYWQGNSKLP
Protocol: (§1) GPCR panel: Screening against the receptors within the PDSP panel offers an assessment of off-target pharmacological activity at cloned human or rodent CNS receptors, channels, and transporters that could confound CNS-related phenotypes. A total of 46–47 primary binding assays were run in quadruplicate on these compounds at 10 μM, with follow-up secondary binding assays in 11-point dose-response in triplicate for select compounds versus select receptors. Secondary binding assays were executed for all receptors where test compound displaced an average of >50% of radio-labeled standard ligand. As an exception, no secondary assays were carried out for H3, PBR, or GABAA. […]

[2] = biological target: T2, cloned human or rodent CNS receptors, channels, and transporters (PDSP panel) (Homo sapiens, UniProt P18089); test: PDSP GPCR panel primary binding assays at 10 μM; conditions: primary assay
T2 construct: expressed in transfected cells
T2 sequence (P18089 1-450): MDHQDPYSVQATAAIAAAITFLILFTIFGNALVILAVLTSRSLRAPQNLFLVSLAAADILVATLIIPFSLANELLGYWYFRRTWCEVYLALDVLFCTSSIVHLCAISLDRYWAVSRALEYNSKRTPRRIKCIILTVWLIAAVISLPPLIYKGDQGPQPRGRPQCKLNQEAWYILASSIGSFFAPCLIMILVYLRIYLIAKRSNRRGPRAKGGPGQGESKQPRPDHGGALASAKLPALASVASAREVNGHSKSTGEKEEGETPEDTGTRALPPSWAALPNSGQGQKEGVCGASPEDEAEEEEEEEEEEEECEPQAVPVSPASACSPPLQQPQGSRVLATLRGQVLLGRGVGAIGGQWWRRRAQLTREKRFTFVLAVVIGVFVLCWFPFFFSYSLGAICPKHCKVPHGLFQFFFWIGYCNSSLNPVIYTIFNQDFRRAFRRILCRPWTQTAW
Protocol: as §1

[3] = biological target: T3, cloned human or rodent CNS receptors, channels, and transporters (PDSP panel) (Homo sapiens, UniProt P21918); test: PDSP GPCR panel primary binding assays at 10 μM; conditions: primary assay
T3 construct: expressed in transfected cells
T3 sequence (P21918 whole entry): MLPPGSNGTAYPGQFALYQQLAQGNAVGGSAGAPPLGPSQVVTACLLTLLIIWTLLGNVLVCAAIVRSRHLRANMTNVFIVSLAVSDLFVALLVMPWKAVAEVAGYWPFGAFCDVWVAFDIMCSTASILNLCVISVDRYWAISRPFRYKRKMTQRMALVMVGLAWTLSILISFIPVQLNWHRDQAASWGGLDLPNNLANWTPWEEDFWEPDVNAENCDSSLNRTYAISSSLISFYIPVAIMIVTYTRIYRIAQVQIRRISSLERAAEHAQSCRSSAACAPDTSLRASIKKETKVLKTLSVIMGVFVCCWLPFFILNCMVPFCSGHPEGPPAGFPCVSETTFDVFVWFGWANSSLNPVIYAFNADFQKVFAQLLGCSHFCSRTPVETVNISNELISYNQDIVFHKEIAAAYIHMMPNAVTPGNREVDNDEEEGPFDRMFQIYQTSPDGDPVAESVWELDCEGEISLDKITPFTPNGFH
Protocol: as §1

[4] = biological target: T4, cloned human or rodent CNS receptors, channels, and transporters (PDSP panel) (Homo sapiens, UniProt P28222); test: PDSP GPCR panel primary binding assays at 10 μM; conditions: primary assay
T4 construct: expressed in transfected cells
T4 sequence (P28222 whole entry): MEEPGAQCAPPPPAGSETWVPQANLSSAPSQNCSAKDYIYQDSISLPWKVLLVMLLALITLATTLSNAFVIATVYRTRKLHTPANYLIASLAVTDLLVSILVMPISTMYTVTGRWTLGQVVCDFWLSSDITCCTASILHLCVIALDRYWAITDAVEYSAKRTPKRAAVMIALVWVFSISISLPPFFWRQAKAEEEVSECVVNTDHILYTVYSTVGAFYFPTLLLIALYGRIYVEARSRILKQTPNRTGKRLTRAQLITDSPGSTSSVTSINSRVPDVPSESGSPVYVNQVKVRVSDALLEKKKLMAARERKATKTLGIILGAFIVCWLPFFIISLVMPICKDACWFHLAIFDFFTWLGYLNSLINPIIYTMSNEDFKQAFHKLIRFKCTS
Protocol: as §1

[5] = biological target: T5, cloned human or rodent CNS receptors, channels, and transporters (PDSP panel) (Homo sapiens, UniProt P35368); test: PDSP GPCR panel primary binding assays at 10 μM; conditions: primary assay
T5 construct: expressed in transfected cells
T5 sequence (P35368 1-520): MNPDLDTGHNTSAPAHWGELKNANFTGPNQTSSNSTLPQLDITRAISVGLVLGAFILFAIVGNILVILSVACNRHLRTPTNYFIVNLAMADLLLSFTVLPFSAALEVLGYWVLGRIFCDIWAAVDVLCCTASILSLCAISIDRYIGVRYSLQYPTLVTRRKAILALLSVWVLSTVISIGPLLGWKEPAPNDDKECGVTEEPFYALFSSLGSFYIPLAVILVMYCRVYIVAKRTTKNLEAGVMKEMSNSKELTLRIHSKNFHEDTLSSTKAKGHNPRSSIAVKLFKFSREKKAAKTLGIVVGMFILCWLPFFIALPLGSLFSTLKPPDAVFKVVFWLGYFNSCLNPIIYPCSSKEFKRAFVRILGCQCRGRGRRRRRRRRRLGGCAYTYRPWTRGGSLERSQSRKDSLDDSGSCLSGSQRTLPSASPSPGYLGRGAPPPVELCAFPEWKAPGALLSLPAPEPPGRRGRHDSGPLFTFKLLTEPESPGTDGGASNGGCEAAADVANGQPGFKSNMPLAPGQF
Protocol: as §1

cellular system = tested on: cellular system; design: method as in column References for potency and dosing (the 5th table c13); conditions: published data; References for potency and dosing; cited from earlier work

## MDL 28170 [UNC10302675A]
[1]; M5, mean inhibition
  Mean %: -3.08%
[1]; M5, replicate 1
  Inhibition 1: 7.51%
[1]; M5, replicate 2
  Inhibition 2: -10.6%
[1]; M5, replicate 3
  Inhibition 3: 0.26%
[1]; M5, replicate 4
  Inhibition 4: -9.5%
[2]; Alpha2B, mean inhibition
  Mean %: 5.87%
[2]; Alpha2B, replicate 1
  Inhibition 1: 22.44%
[2]; Alpha2B, replicate 2
  Inhibition 2: -15.29%
[2]; Alpha2B, replicate 3
  Inhibition 3: -0.28%
[2]; Alpha2B, replicate 4
  Inhibition 4: 16.62%
[3]; D5, mean inhibition
  Mean %: 3.1%
[3]; D5, replicate 1
  Inhibition 1: 35%
[3]; D5, replicate 2
  Inhibition 2: -0.46%
[3]; D5, replicate 3
  Inhibition 3: -13.75%
[3]; D5, replicate 4
  Inhibition 4: -8.4%
[4]; 5-HT1B, mean inhibition
  Mean %: 7.62%
[4]; 5-HT1B, replicate 1
  Inhibition 1: 14.84%
[4]; 5-HT1B, replicate 2
  Inhibition 2: 5.24%
[4]; 5-HT1B, replicate 3
  Inhibition 3: 9.43%
[4]; 5-HT1B, replicate 4
  Inhibition 4: 0.96%
[5]; Alpha1B, mean inhibition
  Mean %: -5.99%
[5]; Alpha1B, replicate 1
  Inhibition 1: -0.72%
[5]; Alpha1B, replicate 2
  Inhibition 2: -4.38%
[5]; Alpha1B, replicate 3
  Inhibition 3: -14.01%
[5]; Alpha1B, replicate 4
  Inhibition 4: -4.84%
Cellular system
  Reported as cell active (<10 μM): Y (Published data supports that the compound is active in a cellular system when dosed at 10 μM (Y/N))

## CCCCNc1ncc2c(-c3ccc(CN4CCN(C)CC4)cc3)cn([C@H]3CC[C@H](O)CC3)c2n1 [UNC2025C, UNC2025]
[1]; Receptor M5, 10 μM
  Inhibition 1: 16.16%
  Inhibition 2: 21.19%
  Inhibition 3: 19.69%
  Inhibition 4: 10.93%
[1]; Receptor M5, 10 μM, mean of Inhibition 1-4
  Mean %: 16.99%
[2]; Receptor Alpha2B, 10 μM
  Inhibition 1: 27.09%
  Inhibition 2: 28.85%
  Inhibition 3: -0.55%
  Inhibition 4: 53.34%
[2]; Receptor Alpha2B, 10 μM, mean of Inhibition 1-4
  Mean %: 27.18%
[3]; Receptor D5, 10 μM
  Inhibition 1: 6.22%
  Inhibition 2: 2.13%
  Inhibition 3: 5.78%
  Inhibition 4: 14.39%
[3]; Receptor D5, 10 μM, mean of Inhibition 1-4
  Mean %: 7.13%
[4]; Receptor 5-HT1B, 10 μM
  Inhibition 1: 31.06%
  Inhibition 2: 11.01%
  Inhibition 3: 10.42%
  Inhibition 4: 12.97%
[4]; Receptor 5-HT1B, 10 μM, mean of Inhibition 1-4
  Mean %: 16.37%
[5]; Receptor Alpha1B, 10 μM
  Inhibition 1: 15.21%
  Inhibition 2: -0.72%
  Inhibition 3: -5.53%
  Inhibition 4: -1.63%
[5]; Receptor Alpha1B, 10 μM, mean of Inhibition 1-4
  Mean %: 1.83%
Cellular system
  Reported as cell active (<10 μM): Y (Published data supports that the compound is active in a cellular system when dosed at 10 μM (Y/N))

## O=C(NC1CC1)C(=O)C(Cc1ccccc1)NC(=O)[C@H]1CCC(=O)N1Cc1ccccc1 (stereo partly drawn) [UNC10302676A, ABT-957 (Alicapistat)]
[1]; M5, mean inhibition
  Mean %: -3.53%
[1]; M5, replicate 1
  Inhibition 1: 2.18%
[1]; M5, replicate 2
  Inhibition 2: -7.48%
[1]; M5, replicate 3
  Inhibition 3: -4.57%
[1]; M5, replicate 4
  Inhibition 4: -4.26%
[2]; Alpha2B, mean inhibition
  Mean %: 8.48%
[2]; Alpha2B, replicate 1
  Inhibition 1: 16.01%
[2]; Alpha2B, replicate 2
  Inhibition 2: 17.34%
[2]; Alpha2B, replicate 3
  Inhibition 3: -9.53%
[2]; Alpha2B, replicate 4
  Inhibition 4: 10.08%
[3]; D5, mean inhibition
  Mean %: -6.38%
[3]; D5, replicate 1
  Inhibition 1: 0%
[3]; D5, replicate 2
  Inhibition 2: 3.82%
[3]; D5, replicate 3
  Inhibition 3: -18.95%
[3]; D5, replicate 4
  Inhibition 4: -10.39%
[4]; 5-HT1B, mean inhibition
  Mean %: 8.92%
[4]; 5-HT1B, replicate 1
  Inhibition 1: 9.16%
[4]; 5-HT1B, replicate 2
  Inhibition 2: 10.49%
[4]; 5-HT1B, replicate 3
  Inhibition 3: 8.83%
[4]; 5-HT1B, replicate 4
  Inhibition 4: 7.18%
[5]; Alpha1B, mean inhibition
  Mean %: -8.47%
[5]; Alpha1B, replicate 1
  Inhibition 1: -8.91%
[5]; Alpha1B, replicate 2
  Inhibition 2: -13.01%
[5]; Alpha1B, replicate 3
  Inhibition 3: -14.75%
[5]; Alpha1B, replicate 4
  Inhibition 4: 2.78%
Cellular system
  Reported as cell active (<10 μM): Y (Published data supports that the compound is active in a cellular system when dosed at 10 μM (Y/N))
